Measurements published in ChEMBL document CHEMBL5036347, “Design of the naphthyl-diarylpyrimidines as potent non-nucleoside reverse transcriptase inhibitors (NNRTIs) via structure-based extension into the entrance channel” (Eur J Med Chem, 2021).

How the values were obtained:
Type in all cases: physicochemical
Conditions in all cases: dose 0.1-10 mg
[1] = Water solubility of compound at pH 2 at 0.1 to 10 mg by HPLC-UV analysis
[2] = Water solubility of compound at pH 7 at 0.1 to 10 mg by HPLC-UV analysis
[3] = Water solubility of compound at pH 7.4 at 0.1 to 10 mg by HPLC-UV analysis

Question: Which solubility [1] does the source give for `Br.COc1cc2cc(C#N)ccc2c(OC)c1Oc1cc(N)nc(Nc2ccc(C#N)cc2)n1` here?
Answer: Its solubility is less than 1 µg/mL.

Question: And the solubility [2]?
Answer: The solubility was less than 1 µg/mL.

Question: And the solubility [3]?
Answer: Its solubility is less than 1 µg/mL.

Question: For `CCNc1cc(Oc2c(OC)cc3cc(C#N)ccc3c2OC)nc(Nc2ccc(C#N)cc2)n1.Cl`, which solubility [1] is on record?
Answer: The solubility was 9 µg/mL.

Question: What about the solubility [2] of the same compound?
Answer: The solubility was less than 1 µg/mL.

Question: What about the solubility [3] of the same compound?
Answer: Its solubility is 11 µg/mL.

Question: For `COc1cc2cc(C#N)ccc2c(OC)c1Oc1cc(N)nc(Nc2ccc(C#N)cc2)n1.O=CO`, which solubility [1] is on record?
Answer: Its solubility is 1 µg/mL.

Question: And the solubility [2]?
Answer: Its solubility is less than 1 µg/mL.

Question: What about the solubility [3] of the same compound?
Answer: The solubility was 2 µg/mL.

Question: Which solubility [1] does the source give for `CCNc1cc(Oc2c(OC)cc3cc(C#N)ccc3c2OC)nc(Nc2ccc(C#N)cc2)n1.O=C(O)/C=C\C(=O)O` here?
Answer: Its solubility is 2 µg/mL.

Question: And the solubility [2]?
Answer: Its solubility is 1 µg/mL.

Question: What about the solubility [3] of the same compound?
Answer: The solubility was 47 µg/mL.

Question: For `CC(=O)O.COc1cc2cc(C#N)ccc2c(OC)c1Oc1cc(N2CCC(O)C2)nc(Nc2ccc(C#N)cc2)n1` (stereo unspecified), which solubility [1] is on record?
Answer: The solubility was less than 1 µg/mL.

Question: And the solubility [2]?
Answer: The solubility was less than 1 µg/mL.

Question: And the solubility [3]?
Answer: Its solubility is 3 µg/mL.

Question: With `COc1cc2cc(C#N)ccc2c(OC)c1Oc1cc(N2CCC(O)C2)nc(Nc2ccc(C#N)cc2)n1.O=C(O)C(O)C(O)C(=O)O` (stereo unspecified) as the compound, how does the solubility [1] read?
Answer: The solubility was less than 1 µg/mL.

Question: What about the solubility [2] of the same compound?
Answer: Its solubility is less than 1 µg/mL.

Question: And the solubility [3]?
Answer: Its solubility is 3 µg/mL.

Question: With `Br.CCNc1cc(Oc2c(OC)cc3cc(C#N)ccc3c2OC)nc(Nc2ccc(C#N)cc2)n1` as the compound, how does the solubility [1] read?
Answer: The solubility was 1 µg/mL.

Question: What about the solubility [2] of the same compound?
Answer: Its solubility is 1 µg/mL.

Question: What about the solubility [3] of the same compound?
Answer: The solubility was 1 µg/mL.

Question: With `CCNc1cc(Oc2c(OC)cc3cc(C#N)ccc3c2OC)nc(Nc2ccc(C#N)cc2)n1.O=S(=O)(O)O` as the compound, how does the solubility [1] read?
Answer: Its solubility is 9 µg/mL.

Question: And the solubility [2]?
Answer: Its solubility is 4 µg/mL.

Question: What about the solubility [3] of the same compound?
Answer: Its solubility is 115 µg/mL.

Question: Which results are given for `COc1cc2cc(C#N)ccc2c(OC)c1Oc1cc(N2CCC(O)C2)nc(Nc2ccc(C#N)cc2)n1.O=S(=O)(O)O` (stereo unspecified)?
Answer: solubility [1]: < 1 µg/mL; solubility [2]: < 1 µg/mL; solubility [3]: 2 µg/mL

Question: What does the source list for `COc1cc2cc(C#N)ccc2c(OC)c1Oc1cc(N2CCC(O)C2)nc(Nc2ccc(C#N)cc2)n1.CS(=O)(=O)O` (stereo unspecified)?
Answer: solubility [1]: < 1 µg/mL; solubility [2]: < 1 µg/mL; solubility [3]: 2 µg/mL

Question: With `CC(=O)O.COc1cc2cc(C#N)ccc2c(OC)c1Oc1cc(N)nc(Nc2ccc(C#N)cc2)n1` as the compound, how does the solubility [1] read?
Answer: The solubility was less than 1 µg/mL.

Question: And the solubility [2]?
Answer: Its solubility is less than 1 µg/mL.

Question: And the solubility [3]?
Answer: The solubility was less than 1 µg/mL.

Question: With `CCNc1cc(Oc2c(OC)cc3cc(C#N)ccc3c2OC)nc(Nc2ccc(C#N)cc2)n1.O=C(O)CC(O)(CC(=O)O)C(=O)O` as the compound, how does the solubility [1] read?
Answer: The solubility was 1 µg/mL.

Question: And the solubility [2]?
Answer: The solubility was less than 1 µg/mL.

Question: What about the solubility [3] of the same compound?
Answer: Its solubility is 1 µg/mL.

Question: Which solubility [1] does the source give for `COc1cc2cc(C#N)ccc2c(OC)c1Oc1cc(N)nc(Nc2ccc(C#N)cc2)n1.CS(=O)(=O)O` here?
Answer: Its solubility is 4 µg/mL.

Question: What about the solubility [2] of the same compound?
Answer: Its solubility is less than 1 µg/mL.

Question: What about the solubility [3] of the same compound?
Answer: Its solubility is 11 µg/mL.

Question: Which solubility [1] does the source give for `COc1cc2cc(C#N)ccc2c(OC)c1Oc1cc(N2CCC(O)C2)nc(Nc2ccc(C#N)cc2)n1.I` (stereo unspecified) here?
Answer: Its solubility is less than 1 µg/mL.

Question: And the solubility [2]?
Answer: Its solubility is less than 1 µg/mL.

Question: What about the solubility [3] of the same compound?
Answer: Its solubility is 9 µg/mL.

Question: What does the source list for `COc1cc2cc(C#N)ccc2c(OC)c1Oc1cc(N2CCC(O)C2)nc(Nc2ccc(C#N)cc2)n1.Cl` (stereo unspecified)?
Answer: solubility [1]: < 1 µg/mL; solubility [2]: < 1 µg/mL; solubility [3]: 2 µg/mL

Question: Which solubility [1] does the source give for `CCNc1cc(Oc2c(OC)cc3cc(C#N)ccc3c2OC)nc(Nc2ccc(C#N)cc2)n1.Cc1ccc(S(=O)(=O)O)cc1` here?
Answer: Its solubility is less than 1 µg/mL.

Question: And the solubility [2]?
Answer: The solubility was less than 1 µg/mL.

Question: And the solubility [3]?
Answer: The solubility was 12 µg/mL.

Question: Which solubility [1] does the source give for `COc1cc2cc(C#N)ccc2c(OC)c1Oc1cc(N)nc(Nc2ccc(C#N)cc2)n1.Cc1ccc(S(=O)(=O)O)cc1` here?
Answer: Its solubility is 2 µg/mL.

Question: What about the solubility [2] of the same compound?
Answer: Its solubility is less than 1 µg/mL.

Question: What about the solubility [3] of the same compound?
Answer: The solubility was 2 µg/mL.

Question: Which solubility [1] does the source give for `CCNc1cc(Oc2c(OC)cc3cc(C#N)ccc3c2OC)nc(Nc2ccc(C#N)cc2)n1.I` here?
Answer: The solubility was 1 µg/mL.

Question: What about the solubility [2] of the same compound?
Answer: Its solubility is less than 1 µg/mL.

Question: And the solubility [3]?
Answer: Its solubility is 1 µg/mL.

Question: For `COc1cc2cc(C#N)ccc2c(OC)c1Oc1cc(N2CCC(O)C2)nc(Nc2ccc(C#N)cc2)n1.O=C(O)CC(O)(CC(=O)O)C(=O)O` (stereo unspecified), which solubility [1] is on record?
Answer: The solubility was less than 1 µg/mL.

Question: What about the solubility [2] of the same compound?
Answer: The solubility was less than 1 µg/mL.

Question: And the solubility [3]?
Answer: Its solubility is less than 2 µg/mL.

Question: With `CC(=O)O.CCNc1cc(Oc2c(OC)cc3cc(C#N)ccc3c2OC)nc(Nc2ccc(C#N)cc2)n1` as the compound, how does the solubility [1] read?
Answer: Its solubility is 1 µg/mL.

Question: What about the solubility [2] of the same compound?
Answer: Its solubility is less than 1 µg/mL.

Question: And the solubility [3]?
Answer: Its solubility is 19 µg/mL.

Question: For `COc1cc2cc(C#N)ccc2c(OC)c1Oc1cc(N2CCC(O)C2)nc(Nc2ccc(C#N)cc2)n1.O=C(O)C(F)(F)F` (stereo unspecified), which solubility [1] is on record?
Answer: Its solubility is less than 1 µg/mL.

Question: What about the solubility [2] of the same compound?
Answer: Its solubility is less than 1 µg/mL.

Question: And the solubility [3]?
Answer: The solubility was 1 µg/mL.

Question: With `COc1cc2cc(C#N)ccc2c(OC)c1Oc1cc(N)nc(Nc2ccc(C#N)cc2)n1.Cl` as the compound, how does the solubility [1] read?
Answer: The solubility was 6 µg/mL.

Question: And the solubility [2]?
Answer: The solubility was 1 µg/mL.

Question: What about the solubility [3] of the same compound?
Answer: Its solubility is 84 µg/mL.
